The values below come from patent US20230024096A1, “BIFUNCTIONAL COMPOUNDS FOR THE TREATMENT OF CANCER” (Hoffmann-La Roche Inc., priority 2019, published 2023).

This experiment concerns the target T1, SMARCA2 (Homo sapiens, UniProt P51531).
T1 construct: endogenous in cells; host or cells: HT1080 (CRISPR HiBiT knock-in clone, generated in house)
In words: SMARCA2 HiBiT degradation assay (cellular). The format is cell-based. Conditions: table head names A549; for DC50: 6 h incubation, HiBiT-tagged SMARCA2, luminescence read-out, read-out: HiBit A549 SMARCA2 IP (nM) 6 h; for Emax: A549, 6 h incubation, Emax = amount of residual protein remaining in the cell following compound treatment. Background: The HiBiT peptide binds its large partner to form an active luciferase.

T1 sequence (P51531 whole entry): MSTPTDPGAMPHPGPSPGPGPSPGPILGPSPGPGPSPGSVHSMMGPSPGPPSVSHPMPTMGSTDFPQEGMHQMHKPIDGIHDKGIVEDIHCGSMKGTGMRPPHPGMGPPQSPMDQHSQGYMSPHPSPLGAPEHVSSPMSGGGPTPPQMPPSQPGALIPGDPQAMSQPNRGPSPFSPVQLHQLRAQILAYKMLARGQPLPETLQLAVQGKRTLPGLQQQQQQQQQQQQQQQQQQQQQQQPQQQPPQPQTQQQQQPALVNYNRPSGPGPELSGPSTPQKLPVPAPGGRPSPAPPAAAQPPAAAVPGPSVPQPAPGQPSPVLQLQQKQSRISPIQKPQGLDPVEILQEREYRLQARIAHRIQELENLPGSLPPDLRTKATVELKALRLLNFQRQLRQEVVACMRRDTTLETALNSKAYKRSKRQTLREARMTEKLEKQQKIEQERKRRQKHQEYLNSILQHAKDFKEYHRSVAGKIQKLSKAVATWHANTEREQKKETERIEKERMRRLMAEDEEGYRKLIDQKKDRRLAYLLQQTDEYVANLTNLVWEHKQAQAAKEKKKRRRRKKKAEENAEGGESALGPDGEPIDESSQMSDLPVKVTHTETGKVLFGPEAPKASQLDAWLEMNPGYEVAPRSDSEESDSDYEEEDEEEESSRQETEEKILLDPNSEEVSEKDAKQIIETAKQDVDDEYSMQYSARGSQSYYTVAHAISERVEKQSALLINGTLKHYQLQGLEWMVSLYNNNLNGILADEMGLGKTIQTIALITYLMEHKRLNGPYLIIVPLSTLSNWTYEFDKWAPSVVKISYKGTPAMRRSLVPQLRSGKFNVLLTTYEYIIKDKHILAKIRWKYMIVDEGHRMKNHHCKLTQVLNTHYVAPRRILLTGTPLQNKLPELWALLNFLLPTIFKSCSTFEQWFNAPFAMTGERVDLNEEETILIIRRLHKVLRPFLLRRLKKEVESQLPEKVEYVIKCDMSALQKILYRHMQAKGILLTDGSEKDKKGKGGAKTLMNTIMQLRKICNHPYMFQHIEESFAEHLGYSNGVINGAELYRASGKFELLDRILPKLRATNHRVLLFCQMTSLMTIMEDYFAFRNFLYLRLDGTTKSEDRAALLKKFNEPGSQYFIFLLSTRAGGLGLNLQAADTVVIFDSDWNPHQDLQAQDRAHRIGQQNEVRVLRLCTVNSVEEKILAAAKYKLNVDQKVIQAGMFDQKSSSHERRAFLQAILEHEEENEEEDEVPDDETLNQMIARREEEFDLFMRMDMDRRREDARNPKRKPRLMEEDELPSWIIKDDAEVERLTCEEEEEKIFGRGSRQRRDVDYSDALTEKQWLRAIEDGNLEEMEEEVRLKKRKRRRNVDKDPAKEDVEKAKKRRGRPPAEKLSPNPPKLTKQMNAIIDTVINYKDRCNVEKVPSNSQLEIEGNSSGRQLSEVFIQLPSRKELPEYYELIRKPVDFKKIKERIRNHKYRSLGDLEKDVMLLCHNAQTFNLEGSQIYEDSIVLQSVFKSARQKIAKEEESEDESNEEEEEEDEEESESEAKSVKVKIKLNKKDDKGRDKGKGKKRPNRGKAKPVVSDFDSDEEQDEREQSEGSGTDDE

The Emax is the maximal effect, on the per cent scale that the assay sets. As for `Nc1nnc(-c2ccccc2O)cc1O[C@@H]1CCCN(c2ccc(N3CCN(C(=O)CCCCCCCCn4cc(CNc5cccc6c5C(=O)N(C5CCC(=O)NC5=O)C6=O)nn4)CC3)cc2)C1` (mixture of isomers) [Example 62, 2-(2,6-dioxo-3-piperidyl)-4-[[1-[9-oxo-9-[4-[4-[rac-(3R)-3-[3-amino-6-(2-hydroxyphenyl)pyridazin-4-yl]oxy-1-piperidyl]phenyl]piperazin-1-yl]nonyl]triazol-4-yl]methylamino]isoindoline-1,3-dione], the DC50 is 124 nM and the Emax was determined as 33%.

In the case of `Nc1nnc(-c2ccccc2O)cc1OC1CCCN(c2ccc(N3CCN(C(=O)CCCCCCCCCCCn4cc(CNc5cccc6c5C(=O)N(C5CCC(=O)NC5=O)C6=O)nn4)CC3)cc2)C1` (centres unmarked) [Example 4, 4-[[1-[12-[4-[4-[3-[3-amino-6-(2-hydroxyphenyl)pyridazin-4-yl]oxy-1-piperidyl]phenyl]piperazin-1-yl]-12-oxo-dodecyl]triazol-4-yl]methylamino]-2-(2,6-dioxo-3-piperidyl)isoindoline-1,3-dione], the DC50 amounted to 149 nM and the Emax was found to be 44%.

With `Nc1nnc(-c2cc(F)ccc2O)cc1N1CC2CCC(C1)N2c1cccc(CN2CCN(C(=O)C3CCN(c4ccc5c(c4)C(=O)N(C4CCC(=O)NC4=O)C5=O)CC3)CC2)c1` (centres unmarked) [Example 158, 5-[4-[4-[[3-[3-[3-amino-6-(5-fluoro-2-hydroxy-phenyl)pyridazin-4-yl]-3,8-diazabicyclo[3.2.1]octan-8-yl]phenyl]methyl]piperazine-1-carbonyl]-1-piperidyl]-2-(2,6-dioxo-3-piperidyl)isoindoline-1,3-dione], the Emax turned out to be 5%.

Take `Nc1nnc(-c2ccccc2O)cc1N1CC2CCC(C1)N2c1cccc(OCCN2CCN(C(=O)CC3CCN(c4ccc5c(c4)C(=O)N(C4CCC(=O)NC4=O)C5=O)CC3)CC2)c1` (racemic) [Example 33, rac-5-[4-[2-[4-[2-[3-[3-[3-amino-6-(2-hydroxyphenyl)pyridazin-4-yl]-3,8-diazabicyclo[3.2.1]octan-8-yl]phenoxy]ethyl]piperazin-1-yl]-2-oxo-ethyl]-1-piperidyl]-2-(2,6-dioxo-3-piperidyl)isoindoline-1,3-dione]: the DC50 is 15 nM and the Emax was determined as 39%.

`Nc1nnc(-c2ccccc2O)cc1N1CCC(C(=O)N2CCC3(CC2)CN(C(=O)CN2CCC(c4ccc(NC5CCC(=O)NC5=O)cc4)CC2)CCO3)(c2ccccc2)CC1` (centres unmarked) [Example 169, 3-((4-(1-(2-(9-(1-(3-amino-6-(2-hydroxyphenyl)pyridazin-4-yl)-4-phenylpiperidine-4-carbonyl)-1-oxa-4,9-diazaspiro[5.5]undecan-4-yl)-2-oxoethyl)piperidin-4-yl)phenyl)amino)piperidine-2,6-dione]: the DC50 was 49 nM and the Emax is 56%.

Take `Nc1nnc(-c2ccccc2O)cc1OC1CCCN(c2ccc(N3CCN(C(=O)CCCCCCCCCCCCCCn4cc(CNc5cccc6c5C(=O)N(C5CCC(=O)NC5=O)C6=O)nn4)CC3)cc2)C1` (centres unmarked) [Example 8, 4-[[1-[15-[4-[4-[3-[3-amino-6-(2-hydroxyphenyl)pyridazin-4-yl]oxy-1-piperidyl]phenyl]piperazin-1-yl]-15-oxo-pentadecyl]triazol-4-yl]methylamino]-2-(2,6-dioxo-3-piperidyl)isoindoline-1,3-dione]: the DC50 stood at 254 nM and the maximum response (Emax) stood at 65%.

Regarding `Nc1nnc(-c2ccccc2O)cc1N1CCC(C(=O)N2CC3(CN(C(=O)CCCN4CCC(c5ccc(OC6CCC(=O)NC6=O)cc5)CC4)C3)C2)(c2ccccc2)CC1` (centres unmarked) [Example 123, 3-(4-(1-(4-(6-(1-(3-amino-6-(2-hydroxyphenyl)pyridazin-4-yl)-4-phenylpiperidine-4-carbonyl)-2,6-diazaspiro[3.3]heptan-2-yl)-4-oxobutyl)piperidin-4-yl)phenoxy)piperidine-2,6-dione], the DC50 was 75 nM and the Emax amounted to 34%.

For `Nc1nnc(-c2ccccc2O)cc1N1CCC2(CC1)CN(C(=O)CCC1CCN(c3cccc4c3C(=O)N(C3CCC(=O)NC3=O)C4=O)CC1)CCO2` (centres unmarked) [Example 2, 4-[4-[3-[9-[3-amino-6-(2-hydroxyphenyl)pyridazin-4-yl]-1-oxa-4,9-diazaspiro[5.5]undecan-4-yl]-3-oxo-propyl]-1-piperidyl]-2-(2,6-dioxo-3-piperidyl)isoindoline-1,3-dione], the DC50 is 550 nM and the Emax came out at 53%.

`Nc1nnc(-c2ccccc2O)cc1N1CCN(c2cccc(OCCN3CCN(C(=O)C4CCN(c5ccc6c(c5)C(=O)N(C5CCC(=O)NC5=O)C6=O)CC4)CC3)c2)C2(CC2)C1` (centres unmarked) [Example 84, 5-(4-(4-(2-(3-(7-(3-amino-6-(2-hydroxyphenyl)pyridazin-4-yl)-4,7-diazaspiro[2.5]octan-4-yl)phenoxy)ethyl)piperazine-1-carbonyl)piperidin-1-yl)-2-(2,6-dioxopiperidin-3-yl)isoindoline-1,3-dione]: the DC50 was 17 nM and the Emax was found to be 26%.

As for `Nc1nnc(-c2ccccc2O)cc1N1CC2CCC(C1)N2c1cccc(OCCN2CCN(C(=O)CCC(=O)N3CCC(Nc4cccc5c4C(=O)N(C4CCC(=O)NC4=O)C5=O)CC3)CC2)c1` (racemic) [Example 20, rac-4-[[1-[4-[4-[2-[3-[3-[3-amino-6-(2-hydroxyphenyl)pyridazin-4-yl]-3,8-diazabicyclo[3.2.1]octan-8-yl]phenoxy]ethyl]piperazin-1-yl]-4-oxo-butanoyl]-4-piperidyl]amino]-2-(2,6-dioxo-3-piperidyl)isoindoline-1,3-dione], the DC50 came to 168 nM and the Emax came to 49%.

In the case of `Nc1nnc(-c2ccccc2O)cc1N1CC(Oc2ccc(CN3CCN(C(=O)CCCCCCNc4cccc5c4C(=O)N(C4CCC(=O)NC4=O)C5=O)CC3)cc2)C1` (centres unmarked) [Example 67, 4-[[7-[4-[[4-[1-[3-amino-6-(2-hydroxyphenyl)pyridazin-4-yl]azetidin-3-yl]oxyphenyl]methyl]piperazin-1-yl]-7-oxo-heptyl]amino]-2-(2,6-dioxo-3-piperidyl)isoindoline-1,3-dione], the DC50 stood at 37 nM and the maximal response (Emax) is 54%.

For the compound `Nc1nnc(-c2ccccc2O)cc1OC1CCCN(c2ccc(N3CCN(CCCCCCCCCn4cc(C5(Nc6cccc7c6C(=O)N(C6CCC(=O)NC6=O)C7=O)CC5)nn4)CC3)cc2)C1` (centres unmarked) [Example 90, 4-[[1-[1-[9-[4-[4-[3-[3-amino-6-(2-hydroxyphenyl)pyridazin-4-yl]oxy-1-piperidyl]phenyl]piperazin-1-yl]nonyl]triazol-4-yl]cyclopropyl]amino]-2-(2,6-dioxo-3-piperidyl)isoindoline-1,3-dione], the DC50 stood at 103 nM and the Emax is 37%.

As for `Cc1c(C(=O)N2CCN(C(=O)CCC3CCN(c4ccc5c(c4)C(=O)N(C4CCC(=O)NC4=O)C5=O)CC3)CC2)cccc1N1C2CCC1CN(c1cc(-c3ccccc3O)nnc1N)C2` (racemic) [Example 117, rac-5-[4-[3-[4-[3-[3-[3-amino-6-(2-hydroxyphenyl)pyridazin-4-yl]-3,8-diazabicyclo[3.2.1]octan-8-yl]-2-methyl-benzoyl]piperazin-1-yl]-3-oxo-propyl]-1-piperidyl]-2-(2,6-dioxo-3-piperidyl)isoindoline-1,3-dione], the DC50 worked out at 144 nM and the maximal effect (Emax) amounted to 50%.

As to `Nc1nnc(-c2ccccc2O)cc1N1CCN(c2ccccc2)C(C(=O)NC2CCN(C(=O)CCC3CCN(c4ccc5c(c4)C(=O)N(C4CCC(=O)NC4=O)C5=O)CC3)CC2)C1` (centres unmarked) [Example 54, 4-[3-amino-6-(2-hydroxyphenyl)pyridazin-4-yl]-N-[1-[3-[1-[2-(2,6-dioxo-3-piperidyl)-1,3-dioxo-isoindolin-5-yl]-4-piperidyl]propanoyl]-4-piperidyl]-1-phenyl-piperazine-2-carboxamide], the DC50 was 42 nM and the Emax was 63%.

Turning to `Nc1nnc(-c2ccccc2O)cc1N1CC2CCC(C1)N2c1cccc(CN2CCC(C(=O)NC3CN(c4ccc5c(c4)C(=O)N(C4CCC(=O)NC4=O)C5=O)C3)CC2)c1` (racemic) [Example 134, rac-1-[[3-[3-[3-amino-6-(2-hydroxyphenyl)pyridazin-4-yl]-3,8-diazabicyclo[3.2.1]octan-8-yl]phenyl]methyl]-N-[1-[2-(2,6-dioxo-3-piperidyl)-1,3-dioxo-isoindolin-5-yl]azetidin-3-yl]piperidine-4-carboxamide], the DC50 was 31 nM and the Emax is 36%.

Regarding `Nc1nnc(-c2ccccc2O)cc1N1CC2CCC(C1)N2c1cccc(OCCN2CCN(C(=O)CCC3CCN(c4ccc5c(c4)C(=O)N(C4CCC(=O)NC4=O)C5=O)CC3)CC2)c1` (racemic) [Example 14, rac-5-[4-[3-[4-[2-[3-[3-[3-amino-6-(2-hydroxyphenyl)pyridazin-4-yl]-3,8-diazabicyclo[3.2.1]octan-8-yl]phenoxy]ethyl]piperazin-1-yl]-3-oxo-propyl]-1-piperidyl]-2-(2,6-dioxo-3-piperidyl)isoindoline-1,3-dione], the DC50 came to 31 nM and the Emax was 45%.

On to `Nc1nnc(-c2ccccc2O)cc1N1CCN(c2cccc(CN3CCN(C(=O)COc4ccc5c(c4)C(=O)N(C4CCC(=O)NC4=O)C5=O)CC3)c2)C2(CC2)C1` (centres unmarked) [Example 129, 5-(2-(4-(3-(7-(3-amino-6-(2-hydroxyphenyl)pyridazin-4-yl)-4,7-diazaspiro[2.5]octan-4-yl)benzyl)piperazin-1-yl)-2-oxoethoxy)-2-(2,6-dioxopiperidin-3-yl)isoindoline-1,3-dione], for which the DC50 came to 37 nM and the Emax was 38%.

Consider `Nc1nnc(-c2ccccc2O)cc1OC1CCCN(c2ccc(N3CCN(CCCCCCCCCn4cc(COc5cccc6c5C(=O)N(C5CCC(=O)NC5=O)C6=O)nn4)CC3)cc2)C1` (centres unmarked) [Example 65, 4-[[1-[9-[4-[4-[3-[3-amino-6-(2-hydroxyphenyl)pyridazin-4-yl]oxy-1-piperidyl]phenyl]piperazin-1-yl]nonyl]triazol-4-yl]methoxy]-2-(2,6-dioxo-3-piperidyl)isoindoline-1,3-dione], for which the DC50 turned out to be 115 nM and the Emax was 31%.
